US9187472B2 (AbbVie Inc., priority 2012, dated 2015)

How the values were obtained:
[1] = molecular target: NAMPT (Homo sapiens, UniProt P43490); test: TR-FRET Binding Assay of NAMPT with PRPP; conditions: with 200 μM PRPP and 2.5 mM ATP; 2 nM NAMPT, 2 nM probe, 16 hours equilibration
In short: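 Run in the presence of substrates (200 μM PRPP, 2.5 mM ATP) with final 2 nM NAMPT, 2 nM probe, 1 nM Tb-anti-His antibody and 2% DMSO. Mixtures equilibrated 16 h before TR-FRET measurement so test compounds could be enzymatically modified.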

[2] = molecular target: NAMPT (human, recombinant, C-terminally His-tagged) (Homo sapiens, UniProt P43490); test: Time-Resolved Fluorescence Resonance Energy Transfer (TR-FRET) Binding Assay of NAMPT; conditions: without substrates; 6.8 nM NAMPT, 200 nM probe, 3 hours equilibration
NAMPT (human, recombinant, C-terminally His-tagged), sequence (P43490 whole entry): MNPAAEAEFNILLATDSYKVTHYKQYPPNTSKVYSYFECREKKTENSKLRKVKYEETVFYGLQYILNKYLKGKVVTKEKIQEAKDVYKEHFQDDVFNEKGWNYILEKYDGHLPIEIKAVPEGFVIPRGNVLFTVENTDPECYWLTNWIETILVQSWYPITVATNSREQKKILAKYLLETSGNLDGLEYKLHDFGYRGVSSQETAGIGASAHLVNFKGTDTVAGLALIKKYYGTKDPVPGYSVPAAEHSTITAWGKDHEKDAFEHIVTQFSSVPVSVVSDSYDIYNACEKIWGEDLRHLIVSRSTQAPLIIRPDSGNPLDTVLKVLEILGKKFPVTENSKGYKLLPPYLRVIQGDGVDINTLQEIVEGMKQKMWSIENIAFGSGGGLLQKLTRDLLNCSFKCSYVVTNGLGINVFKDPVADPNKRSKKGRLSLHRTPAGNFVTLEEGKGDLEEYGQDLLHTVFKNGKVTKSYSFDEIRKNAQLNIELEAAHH
In short: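 Probe displacement by compound was measured with 6.8 nM NAMPT, 200 nM Oregon Green 488-conjugated nicotinamide-competitive inhibitor probe and 1 nM Tb-anti-His antibody in 50 mM HEPES pH 7.5, 100 mM NaCl, 10 mM MgCl2, 1 mM DTT, 1% glycerol, 2% DMSO (final). After 3 h at room temperature, TR-FRET was read; IC50 from four-parameter logistic fit.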

[3] = test system: PC3 cells; test: NAMPT Cell Proliferation Assay; type: cell-based; conditions: Homo sapiens, PC-3, 120 h, 5 days incubation, cell viability by Cell Titer Glo
In short: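 Proliferation of PC3 cells treated 5 days with a 10-fold compound series (top 10 μM) was quantified by Cell Titer Glo luminescence; IC50s were fitted from percent inhibition.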

NAMPT, sequence (P43490 whole entry): as above

Structure (SMILES) | IC50 [1] [nM] | IC50 [2] [nM] | IC50 [3] [nM]
CC(C)(C)CC(=O)N1CC(c2ccc(C(=O)NCc3ccn4ccnc4c3)cc2)C1 [Example 652, 4-[1-(3,3-dimethylbutanoyl)azetidin-3-yl]-N-(imidazo[1,2-a]pyridin-7-ylmethyl)benzamide] | 1.16 | 535 | 34.6
N#Cc1cccc(C(=O)N2CC(c3ccc(C(=O)NCc4ccn5ccnc5c4)cc3)C2)c1 [Example 653, 4-[1-(3-cyanobenzoyl)azetidin-3-yl]-N-(imidazo[1,2-a]pyridin-7-ylmethyl)benzamide] | 0.893 | 831 | 715
COc1cccc(C(=O)N2CC(c3ccc(C(=O)NCc4ccn5ccnc5c4)cc3)C2)c1 [Example 654, N-(imidazo[1,2-a]pyridin-7-ylmethyl)-4-[1-(3-methoxybenzoyl)azetidin-3-yl]benzamide] | 0.945 | 213 | 67.9
O=C(NCc1ccn2ccnc2c1)c1ccc(C2CN(C(=O)CC3CCCCC3)C2)cc1 [Example 657, 4-[1-(cyclohexylacetyl)azetidin-3-yl]-N-(imidazo[1,2-a]pyridin-7-ylmethyl)benzamide] | 0.589 | 232 | 36
O=C(NCc1ccn2ccnc2c1)c1ccc(C2CN(C(=O)C3CCCCC3)C2)cc1 [Example 660, 4-[1-(cyclohexylcarbonyl)azetidin-3-yl]-N-(imidazo[1,2-a]pyridin-7-ylmethyl)benzamide] | 0.693 | 282 | 70.9
CC1(C(=O)N2CC(c3ccc(C(=O)NCc4ccn5ccnc5c4)cc3)C2)CCCCC1 [Example 665, N-(imidazo[1,2-a]pyridin-7-ylmethyl)-4-{1-[(1-methylcyclohexyl)carbonyl]azetidin-3-yl}benzamide] | 0.357 | 123 | 7.28
CC(C)C(C)C(=O)N1CC(c2ccc(C(=O)NCc3ccn4ccnc4c3)cc2)C1 (stereo not drawn) [Example 666, 4-[1-(2,3-dimethylbutanoyl)azetidin-3-yl]-N-(imidazo[1,2-a]pyridin-7-ylmethyl)benzamide] | 0.855 | 193 | 5.18
O=C(NCc1ccn2ccnc2c1)c1ccc(C2CN(C(=O)c3cccc(OC(F)(F)F)c3)C2)cc1 [Example 669, N-(imidazo[1,2-a]pyridin-7-ylmethyl)-4-{1-[3-(trifluoromethoxy)benzoyl]azetidin-3-yl}benzamide] | 0.807 | 407 | 686
O=C(NCc1ccn2ccnc2c1)c1ccc(C2CN(C(=O)c3cccc(C(F)(F)F)c3)C2)cc1 [Example 671, N-(imidazo[1,2-a]pyridin-7-ylmethyl)-4-{1-[3-(trifluoromethyl)benzoyl]azetidin-3-yl}benzamide] | 1.06 | 611 | 684
CC(C)S(=O)(=O)N1CCC(c2ccc(C(=O)NCc3ccn4ccnc4c3)cc2)C1 (stereo not drawn) [Example 672, N-(imidazo[1,2-a]pyridin-7-ylmethyl)-4-[1-(propan-2-ylsulfonyl)pyrrolidin-3-yl]benzamide] | 0.504 | 313 | 80
COCCn1cc(-c2ccc(NC(=O)NCc3ccn4ccnc4c3)cc2)cn1 [Example 673, 1-(imidazo[1,2-a]pyridin-7-ylmethyl)-3-{4-[1-(2-methoxyethyl)-1H-pyrazol-4-yl]phenyl}urea] | 0.697 | 452 | 122
O=C(NCc1ccn2ccnc2c1)Nc1ccc(-c2cnn(CC3CCCO3)c2)cc1 (stereo not drawn) [Example 674, 1-(imidazo[1,2-a]pyridin-7-ylmethyl)-3-{4-[1-(tetrahydrofuran-2-ylmethyl)-1H-pyrazol-4-yl]phenyl}urea] | 0.535 | 297 | 32.4

Next, values leading:

IC50 [1] [nM] | IC50 [2] [nM] | IC50 [3] [nM] | Structure (SMILES)
0.998 | 230 | 68.8 | COc1ccc(C(=O)N2CC(c3ccc(C(=O)NCc4ccn5ccnc5c4)cc3)C2)cc1 [Example 655, N-(imidazo[1,2-a]pyridin-7-ylmethyl)-4-[1-(4-methoxybenzoyl)azetidin-3-yl]benzamide]
0.738 | 218 | 38.5 | Cn1cccc1C(=O)N1CC(c2ccc(C(=O)NCc3ccn4ccnc4c3)cc2)C1 [Example 656, N-(imidazo[1,2-a]pyridin-7-ylmethyl)-4-{1-[(1-methyl-1H-pyrrol-2-yl)carbonyl]azetidin-3-yl}benzamide]
0.76 | 137 | 60.8 | O=C(NCc1ccn2ccnc2c1)c1ccc(C2CN(C(=O)c3ccncc3)C2)cc1 [Example 658, N-(imidazo[1,2-a]pyridin-7-ylmethyl)-4-[1-(pyridin-4-ylcarbonyl)azetidin-3-yl]benzamide]
0.71 | 646 | 223 | O=C(NCc1ccn2ccnc2c1)c1ccc(C2CN(C(=O)c3cccnc3)C2)cc1 [Example 659, N-(imidazo[1,2-a]pyridin-7-ylmethyl)-4-[1-(pyridin-3-ylcarbonyl)azetidin-3-yl]benzamide]
0.641 | 462 | 67.2 | O=C(NCc1ccn2ccnc2c1)c1ccc(C2CN(C(=O)c3ccccn3)C2)cc1 [Example 661, N-(imidazo[1,2-a]pyridin-7-ylmethyl)-4-[1-(pyridin-2-ylcarbonyl)azetidin-3-yl]benzamide]
0.671 | 318 | 93.4 | O=C(NCc1ccn2ccnc2c1)c1ccc(C2CN(C(=O)c3ccoc3)C2)cc1 [Example 662, 4-[1-(furan-3-ylcarbonyl)azetidin-3-yl]-N-(imidazo[1,2-a]pyridin-7-ylmethyl)benzamide]
1.07 | 653 | 90 | O=C(NCc1ccn2ccnc2c1)c1ccc(C2CN(C(=O)c3ccncn3)C2)cc1 [Example 663, N-(imidazo[1,2-a]pyridin-7-ylmethyl)-4-[1-(pyrimidin-4-ylcarbonyl)azetidin-3-yl]benzamide]
0.733 | 214 | 71.5 | O=C(NCc1ccn2ccnc2c1)c1ccc(C2CN(C(=O)c3nccs3)C2)cc1 [Example 664, N-(imidazo[1,2-a]pyridin-7-ylmethyl)-4-[1-(1,3-thiazol-2-ylcarbonyl)azetidin-3-yl]benzamide]
0.798 | 226 | 45.8 | Cc1cccc(C(=O)N2CC(c3ccc(C(=O)NCc4ccn5ccnc5c4)cc3)C2)c1 [Example 667, N-(imidazo[1,2-a]pyridin-7-ylmethyl)-4-[1-(3-methylbenzoyl)azetidin-3-yl]benzamide]
1.1 | 263 | 80.3 | O=C(NCc1ccn2ccnc2c1)c1ccc(C2CN(C(=O)c3ccsc3)C2)cc1 [Example 668, N-(imidazo[1,2-a]pyridin-7-ylmethyl)-4-[1-(thiophen-3-ylcarbonyl)azetidin-3-yl]benzamide]
0.545 | 62 | 9.92 | Cc1ccsc1C(=O)N1CC(c2ccc(C(=O)NCc3ccn4ccnc4c3)cc2)C1 [Example 670, N-(imidazo[1,2-a]pyridin-7-ylmethyl)-4-{1-[(3-methylthiophen-2-yl)carbonyl]azetidin-3-yl}benzamide]
